# From PubChem BioAssay (NCI)
#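 How tested: cells in 96-well plates exposed to compound for 48 hours at five concentrations. GI50 = concentration required for 50% inhibition of growth. TGI: total growth inhibition.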
# Assays:
# Assay in all cases: NCI-60 cell line screen, 48 h
# 786-0 renal = test system: 786-0 renal
# A498 renal = test system: A498 renal
# A549 NSCLC = test system: A549 NSCLC
# ACHN renal = test system: ACHN renal
# BT-549 breast = test system: BT-549 breast
# CAKI-1 renal = test system: CAKI-1 renal
# CCRF-CEM leukemia = test system: CCRF-CEM leukemia
# COLO 205 colon = test system: COLO 205 colon
# DU-145 prostate = test system: DU-145 prostate
# EKVX NSCLC = test system: EKVX NSCLC
# HCC-2998 colon = test system: HCC-2998 colon
# HCT-116 colon = test system: HCT-116 colon
# HCT-15 colon = test system: HCT-15 colon
# HL-60(TB) leukemia = test system: HL-60(TB) leukemia
# HOP-62 NSCLC = test system: HOP-62 NSCLC
# HT29 colon = test system: HT29 colon
# IGROV1 ovarian = test system: IGROV1 ovarian
# K-562 leukemia = test system: K-562 leukemia
# KM12 colon = test system: KM12 colon
# LOX IMVI melanoma = test system: LOX IMVI melanoma
# M14 melanoma = test system: M14 melanoma
# MALME-3M melanoma = test system: MALME-3M melanoma
# MCF7 breast = test system: MCF7 breast
# MDA-MB-231 breast = test system: MDA-MB-231 breast
# MDA-MB-435 = test system: MDA-MB-435
# MOLT-4 leukemia = test system: MOLT-4 leukemia
# NCI-H226 lung = test system: NCI-H226 lung
# NCI-H23 lung = test system: NCI-H23 lung
# NCI-H460 lung = test system: NCI-H460 lung
# NCI-H522 lung = test system: NCI-H522 lung
# NCI/ADR-RES ovarian = test system: NCI/ADR-RES ovarian
# OVCAR-3 ovarian = test system: OVCAR-3 ovarian
# OVCAR-4 ovarian = test system: OVCAR-4 ovarian
# OVCAR-5 ovarian = test system: OVCAR-5 ovarian
# OVCAR-8 ovarian = test system: OVCAR-8 ovarian
# PC-3 prostate = test system: PC-3 prostate
# RPMI-8226 leukemia = test system: RPMI-8226 leukemia
# RXF 393 renal = test system: RXF 393 renal
# SF-268 CNS = test system: SF-268 CNS
# SF-295 CNS = test system: SF-295 CNS
# SF-539 CNS = test system: SF-539 CNS
# SK-MEL-2 melanoma = test system: SK-MEL-2 melanoma
# SK-MEL-28 melanoma = test system: SK-MEL-28 melanoma
# SK-MEL-5 melanoma = test system: SK-MEL-5 melanoma
# SK-OV-3 ovarian = test system: SK-OV-3 ovarian
# SN12C renal = test system: SN12C renal
# SNB-19 CNS = test system: SNB-19 CNS
# SNB-75 CNS = test system: SNB-75 CNS
# SR leukemia = test system: SR leukemia
# SW-620 colon = test system: SW-620 colon
# T-47D breast = test system: T-47D breast
# TK-10 renal = test system: TK-10 renal
# U251 CNS = test system: U251 CNS
# UACC-257 melanoma = test system: UACC-257 melanoma
# UACC-62 melanoma = test system: UACC-62 melanoma
# UO-31 renal = test system: UO-31 renal
compound,measurement,setting,value
Cc1cc(N2CCOCC2)nc(NCc2cc(Nc3ccnc4cc(Cl)ccc34)ccc2F)n1,GI50,786-0 renal,1830 nM
same,TGI,786-0 renal,3350 nM
same,GI50,A498 renal,894 nM
same,TGI,A498 renal,2250 nM
same,GI50,A549 NSCLC,1870 nM
same,TGI,A549 NSCLC,3600 nM
same,GI50,ACHN renal,1830 nM
same,TGI,ACHN renal,3330 nM
same,GI50,BT-549 breast,1720 nM
same,TGI,BT-549 breast,3530 nM
same,GI50,CAKI-1 renal,1630 nM
same,TGI,CAKI-1 renal,3140 nM
same,GI50,CCRF-CEM leukemia,1460 nM
same,TGI,CCRF-CEM leukemia,4790 nM
same,GI50,COLO 205 colon,665 nM
same,TGI,COLO 205 colon,2150 nM
same,GI50,DU-145 prostate,1600 nM
same,TGI,DU-145 prostate,3080 nM
same,GI50,EKVX NSCLC,1520 nM
same,TGI,EKVX NSCLC,3910 nM
same,GI50,HCC-2998 colon,1670 nM
same,TGI,HCC-2998 colon,3260 nM
same,GI50,HCT-116 colon,1510 nM
same,TGI,HCT-116 colon,3080 nM
same,GI50,HCT-15 colon,1700 nM
same,TGI,HCT-15 colon,3300 nM
same,GI50,HL-60(TB) leukemia,2310 nM
same,TGI,HL-60(TB) leukemia,4820 nM
same,GI50,HOP-62 NSCLC,1510 nM
same,TGI,HOP-62 NSCLC,2960 nM
same,GI50,HT29 colon,834 nM
same,TGI,HT29 colon,2240 nM
same,GI50,IGROV1 ovarian,1640 nM
same,TGI,IGROV1 ovarian,3920 nM
same,GI50,K-562 leukemia,1780 nM
same,TGI,K-562 leukemia,4490 nM
same,GI50,KM12 colon,1690 nM
same,TGI,KM12 colon,3210 nM
same,GI50,LOX IMVI melanoma,1750 nM
same,TGI,LOX IMVI melanoma,3270 nM
same,GI50,M14 melanoma,1860 nM
same,TGI,M14 melanoma,3570 nM
same,GI50,MALME-3M melanoma,1980 nM
same,TGI,MALME-3M melanoma,3680 nM
same,GI50,MCF7 breast,348 nM
same,TGI,MCF7 breast,1500 nM
same,GI50,MDA-MB-231 breast,1880 nM
same,TGI,MDA-MB-231 breast,3630 nM
same,GI50,MDA-MB-435,1560 nM
same,TGI,MDA-MB-435,2920 nM
same,GI50,MOLT-4 leukemia,1400 nM
same,TGI,MOLT-4 leukemia,3660 nM
same,GI50,NCI-H226 lung,2060 nM
same,TGI,NCI-H226 lung,4310 nM
same,GI50,NCI-H23 lung,1860 nM
same,TGI,NCI-H23 lung,4200 nM
same,GI50,NCI-H460 lung,1830 nM
same,TGI,NCI-H460 lung,3570 nM
same,GI50,NCI-H522 lung,1950 nM
same,TGI,NCI-H522 lung,3850 nM
same,GI50,NCI/ADR-RES ovarian,1730 nM
same,TGI,NCI/ADR-RES ovarian,3310 nM
same,GI50,OVCAR-3 ovarian,1720 nM
same,TGI,OVCAR-3 ovarian,3160 nM
same,GI50,OVCAR-4 ovarian,1320 nM
same,TGI,OVCAR-4 ovarian,3690 nM
same,GI50,OVCAR-5 ovarian,1620 nM
same,TGI,OVCAR-5 ovarian,3160 nM
same,GI50,OVCAR-8 ovarian,1860 nM
same,TGI,OVCAR-8 ovarian,3580 nM
same,GI50,PC-3 prostate,1800 nM
same,TGI,PC-3 prostate,3480 nM
same,GI50,RPMI-8226 leukemia,2320 nM
same,TGI,RPMI-8226 leukemia,5960 nM
same,GI50,RXF 393 renal,1630 nM
same,TGI,RXF 393 renal,3370 nM
same,GI50,SF-268 CNS,1420 nM
same,TGI,SF-268 CNS,3020 nM
same,GI50,SF-295 CNS,1590 nM
same,TGI,SF-295 CNS,3030 nM
same,GI50,SF-539 CNS,1790 nM
same,TGI,SF-539 CNS,3280 nM
same,GI50,SK-MEL-2 melanoma,1950 nM
same,TGI,SK-MEL-2 melanoma,3610 nM
same,GI50,SK-MEL-28 melanoma,1830 nM
same,TGI,SK-MEL-28 melanoma,3400 nM
same,GI50,SK-MEL-5 melanoma,1560 nM
same,TGI,SK-MEL-5 melanoma,2940 nM
same,GI50,SK-OV-3 ovarian,1920 nM
same,TGI,SK-OV-3 ovarian,3480 nM
same,GI50,SN12C renal,1830 nM
same,TGI,SN12C renal,3660 nM
same,GI50,SNB-19 CNS,1650 nM
same,TGI,SNB-19 CNS,3450 nM
same,GI50,SNB-75 CNS,1190 nM
same,TGI,SNB-75 CNS,2640 nM
same,GI50,SR leukemia,1610 nM
same,TGI,SR leukemia,3820 nM
same,GI50,SW-620 colon,1630 nM
same,TGI,SW-620 colon,3280 nM
same,GI50,T-47D breast,1380 nM
same,TGI,T-47D breast,3410 nM
same,GI50,TK-10 renal,1840 nM
same,TGI,TK-10 renal,3400 nM
same,GI50,U251 CNS,1630 nM
same,TGI,U251 CNS,3120 nM
same,GI50,UACC-257 melanoma,1850 nM
same,TGI,UACC-257 melanoma,3540 nM
same,GI50,UACC-62 melanoma,1750 nM
same,TGI,UACC-62 melanoma,3350 nM
same,GI50,UO-31 renal,1570 nM
same,TGI,UO-31 renal,3000 nM
